From patent US20150353495A1 (PORTOLA PHARMACEUTICALS, INC., priority 2010, published 2015)

What was measured:
Type in all cases: biochemical
JAK1 = biological target: T1, JAK1 (Homo sapiens, UniProt P23458); experiment: Z'-LYTE kinase assay JAK1
T1 construct: 5 μl of catalytic domain recombinant Kinase enzyme+Tyr peptide substrate (Invitrogen, CA); purchased Invitrogen
Method in brief: (§1)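 Catalytic-domain recombinant kinase was incubated with Tyr6 FRET peptide, ATP and compound (1% DMSO final) for 1 h at room temperature. Protease development followed for 1 h, cleaving only non-phosphorylated peptide. Inhibition of phosphorylation was read as coumarin/fluorescein FRET fluorescence.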

JAK2 = biological target: T2, JAK2 (Homo sapiens, UniProt O60674); experiment: Z'-LYTE kinase assay JAK2
T2 construct: 5 μl of catalytic domain recombinant Kinase enzyme+Tyr peptide substrate (Invitrogen, CA); purchased Invitrogen
Method in brief: as §1

JAK3 = biological target: T3, JAK3 (Homo sapiens, UniProt P52333); experiment: Z'-LYTE kinase assay JAK3
T3 construct: 5 μl of catalytic domain recombinant Kinase enzyme+Tyr peptide substrate (Invitrogen, CA); purchased Invitrogen
Method in brief: as §1

T2 sequence (O60674 849-1124 limits assumed): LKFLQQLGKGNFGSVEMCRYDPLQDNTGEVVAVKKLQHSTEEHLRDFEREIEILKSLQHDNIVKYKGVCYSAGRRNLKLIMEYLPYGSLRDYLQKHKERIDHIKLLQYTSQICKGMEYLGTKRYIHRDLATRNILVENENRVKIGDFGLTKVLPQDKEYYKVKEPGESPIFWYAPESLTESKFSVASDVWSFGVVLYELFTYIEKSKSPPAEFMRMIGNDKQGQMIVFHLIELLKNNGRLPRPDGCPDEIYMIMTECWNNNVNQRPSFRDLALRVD
T1 sequence (P23458 875-1153 limits assumed): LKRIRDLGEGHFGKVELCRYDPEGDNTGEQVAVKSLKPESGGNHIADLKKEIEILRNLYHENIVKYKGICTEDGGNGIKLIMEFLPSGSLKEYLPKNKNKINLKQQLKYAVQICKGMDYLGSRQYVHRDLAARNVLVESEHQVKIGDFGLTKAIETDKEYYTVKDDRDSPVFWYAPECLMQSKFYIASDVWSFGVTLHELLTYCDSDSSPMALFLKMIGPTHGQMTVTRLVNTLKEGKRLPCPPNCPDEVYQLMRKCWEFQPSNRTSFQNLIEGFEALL
T3 sequence (P52333 822-1111 limits assumed): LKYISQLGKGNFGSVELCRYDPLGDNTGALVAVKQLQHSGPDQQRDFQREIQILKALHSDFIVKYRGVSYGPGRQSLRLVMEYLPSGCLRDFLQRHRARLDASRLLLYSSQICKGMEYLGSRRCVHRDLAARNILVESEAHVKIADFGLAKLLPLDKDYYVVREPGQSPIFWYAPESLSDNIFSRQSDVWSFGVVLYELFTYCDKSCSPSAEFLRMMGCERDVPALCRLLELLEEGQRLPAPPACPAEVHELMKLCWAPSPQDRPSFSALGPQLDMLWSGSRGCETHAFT

Row | SMILES | IC50 (JAK1) | IC50 (JAK2) | IC50 (JAK3)
1 | NC(=O)c1cnc(Nc2ccc(C3CCOCC3)cc2)cc1NCc1ccncn1 [Example 181, 4-(pyrimidin-4-ylmethylamino)-6-(4-(tetrahydro-2H-pyran-4-yl)phenylamino)nicotinamide] | > 1000 nM | > 1000 nM | > 1000 nM
2 | Cn1c(CNc2cc(Nc3ccc(C4CCOCC4)cc3)ncc2C(N)=O)nc2ccccc21 [Example 182, 4-((1-methyl-1H-benzo[d]imidazol-2-yl)methylamino)-6-(4-(tetrahydro-2H-pyran-4-yl)phenylamino)nicotinamide] | > 1000 nM | > 1000 nM | > 1000 nM
3 | Cn1ccnc1CNc1cc(Nc2ccc(C3CCOCC3)cc2)ncc1C(N)=O [Example 183, 4-((1-methyl-1H-imidazol-2-yl)methylamino)-6-(4-(tetrahydro-2H-pyran-4-yl)phenylamino)nicotinamide] | 100 to 1000 nM | 100 to 1000 nM | 10 to 100 nM
4 | C#CCNc1cc(Nc2ccc(C3CCOCC3)cc2)ncc1C(N)=O [Example 184, 4-(prop-2-ynylamino)-6-(4-(tetrahydro-2H-pyran-4-yl)phenylamino)nicotinamide] | > 1000 nM | > 1000 nM | 100 to 1000 nM
5 | NC(=O)c1cnc(Nc2ccc(C3CCOCC3)cc2)cc1NCc1cccnc1 [Example 185, 4-(pyridin-3-ylmethylamino)-6-(4-(tetrahydro-2H-pyran-4-yl)phenylamino)nicotinamide] | 100 to 1000 nM | 100 to 1000 nM | 10 to 100 nM
6 | CC(C)[C@H](C)Nc1cc(Nc2ccc(C3CCOCC3)cc2)ncc1C(N)=O [Example 186, (S)-4-(3-methylbutan-2-ylamino)-6-(4-(tetrahydro-2H-pyran-4-yl)phenylamino)nicotinamide] | 100 to 1000 nM | 100 to 1000 nM | 10 to 100 nM
7 | CCC(=O)N1CCC(c2ccc(Nc3cc(N[C@H](C)C(C)C)c(C(N)=O)cn3)cc2)CC1 [Example 189, (R)-4-(3-methylbutan-2-ylamino)-6-(4-(1-propionylpiperidin-4-yl)phenylamino)nicotinamide] | 10 to 100 nM | 10 to 100 nM | 1 to 10 nM
8 | CCC(=O)N1CCC(c2ccc(Nc3cc(N[C@H](C)C(C)(C)C)c(C(N)=O)cn3)cc2)CC1 [Example 190, (R)-4-(3,3-dimethylbutan-2-ylamino)-6-(4-(1-propionylpiperidin-4-yl)phenylamino)nicotinamide] | 10 to 100 nM | 10 to 100 nM | 1 to 10 nM
9 | CCC(=O)N1CCC(c2ccc(Nc3cc(N[C@H](C)C4CCCCC4)c(C(N)=O)cn3)cc2)CC1 [Example 191, (R)-4-(1-cyclohexylethylamino)-6-(4-(1-propionylpiperidin-4-yl)phenylamino)nicotinamide] | > 1000 nM | > 1000 nM | 100 to 1000 nM
10 | CCC(=O)N1CCC(c2ccc(Nc3cc(NCC4CCCCC4)c(C(N)=O)cn3)cc2)CC1 [Example 192, 4-(cyclohexylmethylamino)-6-(4-(1-propionylpiperidin-4-yl)phenylamino)nicotinamide] | > 1000 nM | 100 to 1000 nM | 10 to 100 nM
11 | CCC(=O)N1CCC(c2ccc(Nc3cc(NCC4(c5ccccc5)CC4)c(C(N)=O)cn3)cc2)CC1 [Example 194, 4-((1-phenylcyclopropyl)methylamino)-6-(4-(1-propionylpiperidin-4-yl)phenylamino)nicotinamide] | > 1000 nM | > 1000 nM | 100 to 1000 nM
12 | NC(=O)c1cnc(Nc2ccc(C3CCOCC3)cc2)cc1NCc1cn(CCN2CCCCC2)nn1 [Example 201, 4-((1-(2-(piperidin-1-yl)ethyl)-1H-1,2,3-triazol-4-yl)methylamino)-6-(4-(tetrahydro-2H-pyran-4-yl)phenylamino)nicotinamide] | > 1000 nM | > 1000 nM | > 1000 nM
13 | CCC(=O)N1CCC(c2ccc(Nc3cc(N[C@H](C)C4CC4)c(C(N)=O)cn3)cc2)CC1 [Example 202, (R)-4-(1-cyclopropylethylamino)-6-(4-(1-propionylpiperidin-4-yl)phenylamino)nicotinamide] | 100 to 1000 nM | 100 to 1000 nM | 10 to 100 nM
14 | NC(=O)c1cnc(Nc2cccc(C3CCOCC3)c2)cc1NCc1cccc(F)c1 [Example 204, 4-(3-fluorobenzylamino)-6-(3-(tetrahydro-2H-pyran-4-yl)phenylamino)nicotinamide] | 100 to 1000 nM | 10 to 100 nM | 1 to 10 nM
15 | NC(=O)c1cnc(Nc2cccc(C3CCOCC3)c2)cc1NCc1cc(F)cc(F)c1 [Example 206, 4-(3,5-difluorobenzylamino)-6-(3-(tetrahydro-2H-pyran-4-yl)phenylamino)nicotinamide] | 100 to 1000 nM | 10 to 100 nM | 1 to 10 nM
16 | NC(=O)c1cnc(Nc2cccc(C3CCOCC3)c2)cc1NCc1cncc(F)c1 [Example 208, 4-((5-fluoropyridin-3-yl)methylamino)-6-(3-(tetrahydro-2H-pyran-4-yl)phenylamino)nicotinamide] | 100 to 1000 nM | 10 to 100 nM | 1 to 10 nM
17 | CN(C)C(=O)c1ccc(Nc2cc(NCc3cccc(-n4ccnc4)c3)c(C(N)=O)cn2)cc1 [Example 224, 4-(3-(1H-imidazol-1-yl)benzylamino)-6-(4-(dimethylcarbamoyl)phenylamino)nicotinamide] | 100 to 1000 nM | 100 to 1000 nM | 1 to 10 nM
18 | CC(=O)N1CCN(c2ccc(Nc3cc(NCc4ccc(F)cc4F)c(C(N)=O)cn3)cc2)CC1 [Example 259, 6-(4-(4-acetylpiperazin-1-yl)phenylamino)-4-(2,4-difluorobenzylamino)nicotinamide] | > 1000 nM | 100 to 1000 nM | 10 to 100 nM

Continued, values first:

Row | IC50 (JAK1) | IC50 (JAK2) | IC50 (JAK3) | SMILES
19 | > 1000 nM | > 1000 nM | 100 to 1000 nM | CCC(=O)N1CCC(c2ccc(Nc3cc(NCc4ncccn4)c(C(N)=O)cn3)cc2)CC1 [Example 180, 6-(4-(1-propionylpiperidin-4-yl)phenylamino)-4-(pyrimidin-2-ylmethylamino)nicotinamide]
20 | 100 to 1000 nM | 10 to 100 nM | 1 to 10 nM | CCC(=O)N1CCC(c2ccc(Nc3cc(NCc4c(F)cccc4F)c(C(N)=O)cn3)cc2)CC1 [Example 203, 4-(2,6-difluorobenzylamino)-6-(4-(1-propionylpiperidin-4-yl)phenylamino)nicotinamide]
21 | 100 to 1000 nM | 10 to 100 nM | 1 to 10 nM | NC(=O)c1cnc(Nc2cccc(C3CCOCC3)c2)cc1NCc1cccc(F)c1F [Example 205, 4-(2,3-difluorobenzylamino)-6-(3-(tetrahydro-2H-pyran-4-yl)phenylamino)nicotinamide]
22 | 100 to 1000 nM | 10 to 100 nM | 1 to 10 nM | NC(=O)c1cnc(Nc2cccc(C3CCOCC3)c2)cc1NCc1cc(F)ccc1F [Example 207, 4-(2,5-difluorobenzylamino)-6-(3-(tetrahydro-2H-pyran-4-yl)phenylamino)nicotinamide]
23 | 10 to 100 nM | 10 to 100 nM | 1 to 10 nM | CCC(=O)N1CCC(c2ccc(Nc3cc(NCc4cccc5[nH]ncc45)c(C(N)=O)cn3)cc2)CC1 [Example 210, 4-((1H-indazol-4-yl)methylamino)-6-(4-(1-propionylpiperidin-4-yl)phenylamino)nicotinamide]
24 | > 1000 nM | 100 to 1000 nM | 1 to 10 nM | CCC(=O)N1CCC(c2ccc(Nc3cc(NCc4cccc5ccsc45)c(C(N)=O)cn3)cc2)CC1 [Example 211, 4-(benzo[b]thiophen-7-ylmethylamino)-6-(4-(1-propionylpiperidin-4-yl)phenylamino)nicotinamide]
25 | 100 to 1000 nM | 10 to 100 nM | 1 to 10 nM | NC(=O)c1cnc(Nc2ccc(C3CNC3)cc2)cc1NCc1cccc(F)c1F [Example 212, 6-(4-(azetidin-3-yl)phenylamino)-4-(2,3-difluorobenzylamino)nicotinamide]
26 | 100 to 1000 nM | 10 to 100 nM | 1 to 10 nM | NC(=O)c1cnc(Nc2ccc(C3CNC3)cc2)cc1NCc1cc(F)ccc1F [Example 213, 6-(4-(azetidin-3-yl)phenylamino)-4-(2,5-difluorobenzylamino)nicotinamide]
27 | 10 to 100 nM | 10 to 100 nM | 1 to 10 nM | NC(=O)c1cnc(Nc2ccc(C3CCNCC3)cc2)cc1NCc1cc(F)ccc1F [Example 214, 4-(2,5-difluorobenzylamino)-6-(4-(piperidin-4-yl)phenylamino)nicotinamide]
28 | > 1000 nM | 100 to 1000 nM | 10 to 100 nM | N#CCN1CCC(c2ccc(Nc3cc(NCc4cccc(F)c4F)c(C(N)=O)cn3)cc2)CC1 [Example 215, 6-(4-(1-(cyanomethyl)piperidin-4-yl)phenylamino)-4-(2,3-difluorobenzylamino)nicotinamide]
29 | > 1000 nM | > 1000 nM | 10 to 100 nM | NC(=O)c1cnc(Nc2ccc(C3CCN(CC(F)F)CC3)cc2)cc1NCc1cccc(F)c1F [Example 216, 4-(2,3-difluorobenzylamino)-6-(4-(1-(2,2-difluoroethyl)piperidin-4-yl)phenylamino)nicotinamide]
30 | 100 to 1000 nM | 10 to 100 nM | 1 to 10 nM | NC(=O)c1cnc(Nc2ccc(C3CCN(CCF)CC3)cc2)cc1NCc1cccc(F)c1F [Example 217, 4-(2,3-difluorobenzylamino)-6-(4-(1-(2-fluoroethyl)piperidin-4-yl)phenylamino)nicotinamide]
31 | 100 to 1000 nM | 10 to 100 nM | 1 to 10 nM | N#CCN1CCC(c2ccc(Nc3cc(NCc4cc(F)ccc4F)c(C(N)=O)cn3)cc2)CC1 [Example 218, 6-(4-(1-(cyanomethyl)piperidin-4-yl)phenylamino)-4-(2,5-difluorobenzylamino)nicotinamide]
